Measured values reported in patent publication US9073858B2, “Methods of targeted drug development” (priority 2010, dated 2015).
Where two headings read alike, the source gives them in different places.

Columns and labels:
[1] = tested on: epithelial carcinoma A431 cell line; assay: MTT Cell Proliferation Assay, A431 cell line; type: cell-based; details: for MTT (10 Point follow-up) ratio / MTT-72 h A431/MDBK (ratio): value in brackets; for MTT (10 Point follow-up) ratio: numerically MDBK over A431; for MTT-72 h A431/MDBK (ratio): numerically MDBK value over A431 value
Text: (§1) The following example describes the MTT Cell Proliferation Assay.
(§2) The MTT Cell Proliferation Assay is a colorimetric assay system that measures the reduction of the tetrazolium salt MTT (3-(4,5-dimethylthiazol-2-yl)-2,5-diphenyltetrazolium bromide) into insoluble formazan crystals, produced by the mitochondria of viable cells. […] The color can then be quantified by spectrophotometric means. Among the applications for the method are drug sensitivity, cytotoxicity, response to growth factors, and cell activation. The reduction of tetrazolium salts is now recognized as a safe, accurate alternative to radiometric testing.
(§3) Two replicates on each cell plate and 2 duplicate plates gave 4 individual replicates of each concentration, in each cell line. Concentrations were diluted in 100% DMSO from 25 mM stocks.
(§4) Twelve 96 well plates of each cell line were plated. Plating was done by dislodging cells as in passage protocol, counting on a hemocytometer, re-suspending in standard growth media, and plating using a multichannel pippetor.
(§5) 16 μl of 25 mM stock+34 μl DMSO=8 mM starting concentrations, and serial diluted as with test compounds in same plate. […] Two replicates of each concentrations was run on each cell plate. All compound addition and cell treatments were done using aseptic technique under a laminar flow aseptic hood.
(§6) Control: 0.5% DMSO in treatment media was used as the control.
(§7) MTT dye (Thiazolyl Blue Tetrazolium Bromide, Sigma cat # M5655) stock was prepared in bulk and stored at 4° C. for use: 5 mgs/ml sterile PDS, shielded from light. 4 ul of this stock per 100 uls treatment media per well was used.
(§8) Plates were incubated overnight prior to treatment, with treatment day=Day 0. Compound treatments were prepared prior to washing cells to minimize time cells were dry at room temperature after final aspiration. Compounds were diluted in 100% DMSO in 96 well polypropylene plates:40 μl 25 mM stock+10 μl DMSO=20 mM; 20 μl of 20 mM+30 μl DMSO=8 mM; 20 μl of 8 mM+30 μl DMSO=3.2 mM; 20 μl of 3.2 mM+30 μl DMSO=1.3 mM; 20 μl of 1.3 mM+30 μl DMSO=0.51 mM.
(§9) 5.0 μl/ml were added to treatment media, in sterile, 2.2 ml deep well plates=0.5% dmso final. Ten μl of each dmso concentration was added to 2.0 ml of treatment media and then mixed using a 1200 μl multichannel pipettor. Cell plates were treated from the deep well plates. Treatment media was standard growth media containing 0.5% FBS and standard additions. This reduced FBS concentration allowed for a slower growth rate in cells.
(§10) Media was aspirated from cell plates, and washed with 200 μl/well sterile PBS. Aspirated PBS wash, and cell plates were treated with 200 μl of compound/treatment media per well, and incubated at 37° C., 5% CO2 for 3 days.
(§11) Prior to harvesting, visual observations were made under an inverted microscope. Plates were harvested by: aspirating the growth media; adding back MTT dye/100 μl treatment media; and incubating plates at 37° C. for 1 hour. MTT dye was aspirated. 100 μl/well dmso was added, and then shaken on a Bellco plate shaker for 5 minutes, at 4.5 setting.
(§12) Plates were read in a Tecan Sunrize UV plate reader, at 560 nm. Settings: Read mode, Outside Normal 2 sec; Shake settle time 3 sec. Data is reported as % inhibition, calculated for individual plates using control values from that plate.

EGFR = biological target: T1, EGFR (Homo sapiens, UniProt P00533); assay: EGFR in-cell Western (ICW) screening protocol; type: cell-based; design: unit not given here; details: for ICW Screen: initial screen
T1 construct: endogenous in cells; host or cells: A431 cells (ATCC CRL-1555)
Method: The following example describes general EGFR in-cell Western (ICW) screening protocol.
Two cell plates were prepared for each compound plate.
Serum Starvation: The cells were serum starved prior to compound addition. […] The cell plates were incubated at 37° C./5% CO2 for 2 hours.
Prepared compound plates were stored at RT prior to use and at 4° C. long term.
Compound Dilution Plate Preparation: 250 μl of DMEM supplemented with 1 mg/ml BSA (Sigma A3059-10G) was added to the appropriate wells of a 96 well plate to prepare the compound dilution plates. Using a multichannel pipettor, 1.25 μl of compound from the compound plate was transferred into the compound dilution plate.
Compound Addition: The starve media was removed from the cell plates by aspiration. Using a multichannel pipettor, the compound dilution plates were mixed by pipetting up and down three times. 50 μl of mixed, diluted compound was added to each of two rows/columns on each of two cell plates. The cell plates with compound were incubated at 37° C./5% CO2 for 4 hours.
50 μl of 20 or 0 ng/ml EGF was added to the appropriate wells without the removal of compound. The compound and EGF were mixed by pipetting up and down three times.
The plates were incubated at RT for 20 min without shaking. The Fixation Solution was removed by aspiration and the plates washed four times with 200 μl each of Triton Wash Solution (1×PBS, Sigma P3813-10PK, and 0.1% Triton X-100, T8787-50ML) for 5 min with gentle shaking.
The block was removed by aspiration and 50 μl of diluted primary Ab mix was added. The plates were incubated at 4° C. overnight with gentle shaking. The plates were washed five times with 200 μl of PBST (1×PBS, Sigma P3813-10PK, and 0.1% Tween-20, Sigma P9416-50ML) for 5 min each with shaking. 50 μl of diluted secondary Ab mix was added and the plates incubated at RT for 1 h with shaking. The plates were washed 5× with 200 μl of PBST for 5 min each with shaking. One final wash with 200 μl of PBS (Sigma P3813-10PK) for 5 min with shaking was performed prior to scanning.
In some screening assays, the dilution of the secondary Ab conjugates was 1/800 rather than 1/1200.
Plate Scanning: The plates were scanned on an Odyssey Infrared Imaging System from LI-COR Biosciences. The focus offset was set at 3.5 mm and the scanning intensity set at 3 for the 700 channel and 7 for the 800 channel.
Data Analysis: The % of Maximum and % Inhibition values were calculated as follows. 700 Channel=signal for total EGFR (used to control for variation in cell number). 800 Channel=signal for phosphorylated EGFR. 800−EGF=basal level EGFR phosporylation+non-specific signal (no compound). 800+EGF=800−EGF+EGF dependent EGFR receptor phosphorylation (no compound). 700/800com=700 or 800 channel signals with compound. % Maximum={[(800com/700com)−(800−EGF/700−EGF)]/[(800+EGF/700+EGF)−(800−EGF/700−EGF)]}×100%. % Inhibition=100%−(% Maximum).

MDBK line = assay: MTT Cell Proliferation Assay, MDBK line; type: cell-based, bovine
Text: as §1, §2, §3, §4, §5, §6, §7, §8, §9, §10, §11, §12

[2] = Homo sapiens, A-431, 10 point follow-up, first value of pair, read-out: MTT (10 Point follow-up) A431
[3] = Homo sapiens, A-431, 72 h, 72 h, first value of A431/MDBK pair, read-out: MTT-72 h A431
[4] = Bos taurus, MDBK, 10 point follow-up, second value of pair, read-out: MTT (10 Point follow-up) MDBK
[5] = Bos taurus, MDBK, 72 h, second value of A431/MDBK pair, read-out: MTT-72 h MDBK

T1 sequence (P00533 25-1210): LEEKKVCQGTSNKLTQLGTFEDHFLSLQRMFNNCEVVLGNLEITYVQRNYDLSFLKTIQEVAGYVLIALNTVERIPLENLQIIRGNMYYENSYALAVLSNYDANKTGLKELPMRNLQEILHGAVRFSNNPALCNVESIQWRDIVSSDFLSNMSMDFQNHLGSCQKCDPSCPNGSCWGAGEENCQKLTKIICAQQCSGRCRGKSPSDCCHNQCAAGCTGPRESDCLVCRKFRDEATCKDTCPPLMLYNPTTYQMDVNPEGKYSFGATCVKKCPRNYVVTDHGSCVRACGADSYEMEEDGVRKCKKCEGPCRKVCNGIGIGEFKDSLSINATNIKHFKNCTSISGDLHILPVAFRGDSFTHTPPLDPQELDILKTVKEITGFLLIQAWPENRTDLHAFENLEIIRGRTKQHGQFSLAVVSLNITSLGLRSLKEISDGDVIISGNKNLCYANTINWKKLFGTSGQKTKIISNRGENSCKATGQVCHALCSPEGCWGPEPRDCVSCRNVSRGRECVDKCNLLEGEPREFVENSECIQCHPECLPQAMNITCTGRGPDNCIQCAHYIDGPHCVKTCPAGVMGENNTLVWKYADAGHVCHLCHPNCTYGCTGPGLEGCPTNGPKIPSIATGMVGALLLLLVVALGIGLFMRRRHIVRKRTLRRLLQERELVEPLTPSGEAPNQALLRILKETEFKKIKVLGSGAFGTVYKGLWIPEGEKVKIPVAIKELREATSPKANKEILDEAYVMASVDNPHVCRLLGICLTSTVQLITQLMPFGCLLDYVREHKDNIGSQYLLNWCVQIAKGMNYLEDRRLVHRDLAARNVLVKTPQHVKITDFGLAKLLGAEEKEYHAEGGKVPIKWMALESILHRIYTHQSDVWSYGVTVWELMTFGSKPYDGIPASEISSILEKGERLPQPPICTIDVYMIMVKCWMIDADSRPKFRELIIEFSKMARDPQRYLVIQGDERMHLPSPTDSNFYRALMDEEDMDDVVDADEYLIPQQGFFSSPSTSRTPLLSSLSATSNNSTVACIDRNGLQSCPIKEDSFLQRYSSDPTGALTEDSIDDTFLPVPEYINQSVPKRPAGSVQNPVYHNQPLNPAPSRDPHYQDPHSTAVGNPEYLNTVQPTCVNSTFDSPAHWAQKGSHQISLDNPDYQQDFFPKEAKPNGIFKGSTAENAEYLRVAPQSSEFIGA

Structure (SMILES) | IC50 [1, 2] [µM] | IC50 [1, 3] [µM] | ICW Screen (EGFR) | ICW Re-Test (EGFR) | IC50 ([1]; 72 h, first value of A431/MDBK pair, read-out: MTT-72 h A431) [µM] | MTT (10 Point follow-up) ratio ([1]; 10 point follow-up) | MTT-72 h A431/MDBK (ratio) ([1]; 72 h) | IC50 (MDBK line; [4]) [µM] | IC50 (MDBK line; [5]) [µM] | IC50 (MDBK line; 72 h, second value of A431/MDBK pair, read-out: MTT-72 h MDBK) [µM] | MTT (10 Point follow-up) % Max ([1]; 10 point follow-up, maximal effect) [%]
CCOc1cc(C(Nc2cc(C)ccn2)c2ccc3ccc(C)nc3c2O)ccc1O (stereo not drawn) [compound 10071] |  | 7.89 | 40.85 | 43.19 |  |  | 1.37 |  | 10.8 |  | 
Oc1c(C(Nc2ccccn2)c2ccccc2Br)cc(Cl)c2cccnc12 (stereo not drawn) [compound 10074] | 1.38 |  | 6.951 |  |  | 1.16 |  | 1.6 |  |  | 
COc1cc(C(Nc2ccccn2)c2cc(Cl)c3cccnc3c2O)cc(I)c1O (stereo not drawn) [compound 10086] |  | 5.96 | 53.89 | 25.94 |  |  | 0.77 |  | 4.61 |  | 
O=C(O)c1ccc(C(Nc2ccccn2)c2cc(Cl)c3cccnc3c2O)cc1 (stereo not drawn) [compound 10093] |  | 31.4 | 25.13 |  |  |  | 0.68 |  | 21.5 |  | 
Oc1c(C(Nc2ccccn2)c2cccc(Cl)c2)cc(Cl)c2cccnc12 (stereo not drawn) [compound 10097] | 1.25 | 6.23 | 28.02 |  |  | 1.66 | 0.98 | 2.07 | 6.09 |  | 
Oc1c(C(Nc2ccccn2)c2cccc(Br)c2)cc(Cl)c2cccnc12 (stereo not drawn) [compound 10100] | 1.06 |  | 18.12 |  |  | 1.62 |  | 1.72 |  |  | 
CCOc1ccc(C(Nc2ccccn2)c2cc(Cl)c3cccnc3c2O)cc1 (stereo not drawn) [compound 10101] | 2.88 |  | 44.01 | 7.53 | 5.77 | 0.90 | 1.66 | 2.59 |  | 9.52 | 
COc1ccc(Br)cc1C(Nc1ccccn1)c1cc(Cl)c2cccnc2c1O (stereo not drawn) [compound 10108] | 1.13 |  | 15.91 |  |  | 1.53 |  | 1.73 |  |  | 
Oc1c(C(Nc2ccccn2)c2ccc(Cl)c(Cl)c2)ccc2cccnc12 (stereo not drawn) [compound 10109] | 0.534 |  | 12.75 |  |  | 2.58 |  | 1.38 |  |  | 
Cc1ccc(NC(c2ccccc2O)c2ccc3cccnc3c2O)nc1 (stereo not drawn) [compound 10430] |  | 6.47 | 43.81 | 48.57 |  |  | 0.86 |  | 5.58 |  | 

More lines, in order of falling IC50 [1, 3], values ahead:

IC50 [1, 2] [µM] | IC50 [1, 3] [µM] | ICW Screen (EGFR) | ICW Re-Test (EGFR) | IC50 ([1]; 72 h, first value of A431/MDBK pair, read-out: MTT-72 h A431) [µM] | Structure (SMILES) | MTT (10 Point follow-up) ratio ([1]; 10 point follow-up) | MTT-72 h A431/MDBK (ratio) ([1]; 72 h) | IC50 (MDBK line; [4]) [µM] | IC50 (MDBK line; [5]) [µM] | IC50 (MDBK line; 72 h, second value of A431/MDBK pair, read-out: MTT-72 h MDBK) [µM] | MTT (10 Point follow-up) % Max ([1]; 10 point follow-up, maximal effect) [%]
 | 5.72 | 29.92 |  |  | CC(C)Oc1ccc(C(Nc2ccccn2)c2ccc3cccnc3c2O)cc1 (stereo not drawn) [compound 10068] |  | 0.91 |  | 5.19 |  | 
 | 5.67 | 39.73 | 21.02 |  | C=CCOc1cccc(C(Nc2cc(C)ccn2)c2ccc3cccnc3c2O)c1 (stereo not drawn) [compound 10144] |  | 0.93 |  | 5.29 |  | 
 | 5.56 | 43.39 | 43.82 |  | Oc1ccccc1C(Nc1ccccn1)c1ccc2cccnc2c1O (stereo not drawn) [compound 10427] |  | 0.87 |  | 4.82 |  | 
1.76 | 5.28 | 21.53 |  |  | Oc1c(C(Nc2ccccn2)c2cccc(F)c2)cc(Cl)c2cccnc12 (stereo not drawn) [compound 10090] | 1.48 | 1.06 | 2.6 | 5.62 |  | 
4.7 | 5.23 | 62.13 | 41.13 |  | COc1cc(C(Nc2ccccn2)c2cc(Cl)c3cccnc3c2O)cc(Br)c1O (stereo not drawn) [compound 10087] | 1.18 | 1.11 | 5.55 | 5.79 |  | 
 | 4.74 | 45.61 | 27.18 |  | CCOc1ccc(C(Nc2cc(C)ccn2)c2ccc3cccnc3c2O)cc1OCC (stereo not drawn) [compound 10143] |  | 0.92 |  | 4.33 |  | 
0.697 | 4.52 | 80.77 | 92.46 |  | Oc1c(C(Nc2cccnc2)c2cccs2)ccc2cccnc12 (stereo not drawn) [compound 10315] | 1.12 | 1.26 | 0.783 | 5.69 |  | 
1.38 | 2.15 | 12.5 |  |  | Cc1ccnc(NC(c2ccc3cccnc3c2O)c2c(O)cccc2Cl)c1 (stereo not drawn) [compound 10067] | 2.14 | 1.60 | 2.95 | 3.45 |  | 
0.605 | 1.29 | 3.88 |  |  | Oc1c(C(Nc2ccccn2)c2c(F)cccc2Cl)cc(Cl)c2cccnc12 (stereo not drawn) [compound 10105] | 1.40 | 1.12 | 0.85 | 1.45 |  | 77
0.717 | 0.73 | 17.15 |  |  | Oc1c(C(Nc2ccccn2)c2ccc(OC(F)F)cc2)ccc2cccnc12 (stereo not drawn) [compound 10466] | 1.08 | 1.31 | 0.775 | 0.95 |  | 
